Measurements published in publication PMC9157788, “Design, Synthesis, and Apoptosis-Promoting Effect Evaluation of Rhopaladins’ Analog 4-Arylidene-5-Oxopyrrolidine Derivatives” (Frontiers in Chemistry, 2022).
pIC50: −log10 of the molar value. Like-named read-outs stand apart in the source and are kept apart here.

Assays:
[1] = test system: C-33A cells; parameters: method as in Kong et al., 2021; settings: MTT, ref Kong et al., 2021, read-out: Half inhibitory concentration (IC50), C-33A; cited from earlier work
[2] = test system: CaSki cells; parameters: method as in Kong et al., 2021; settings: MTT, ref Kong et al., 2021, read-out: Half inhibitory concentration (IC50), CaSki; cited from earlier work
[3] = test system: SiHa cells; parameters: method as in Kong et al., 2021; settings: MTT, ref Kong et al., 2021, read-out: Half inhibitory concentration (IC50), SiHa; cited from earlier work
[4] = test system: HeLa cells; parameters: method as in Kong et al., 2021; settings: MTT, ref Kong et al., 2021, read-out: Half inhibitory concentration (IC50), HeLa; cited from earlier work
[5] = test system: HepG2 cells; parameters: method as in Kong et al., 2021; settings: MTT, ref Kong et al., 2021, read-out: Half inhibitory concentration (IC50), HepG2; cited from earlier work
[6] = test system: 7402 cells; parameters: method as in Kong et al., 2021; settings: MTT, ref Kong et al., 2021, read-out: Half inhibitory concentration (IC50), 7402; cited from earlier work
[7] = test system: LO2 cells; parameters: method as in Kong et al., 2021; settings: normal liver LO2 cells, MTT; ref Kong et al., 2021; read-out: Half inhibitory concentration (IC50), LO2; cited from earlier work
[8] = test system: C-33A cells; experiment: MTT cell viability assay, C-33A; assay type: cell-based; settings: Homo sapiens, 48 h, read-out: Half inhibitory concentration (IC50), C-33A
Protocol: (§1) HepG2 (human epidermoid hepatocellular carcinoma cell), 7402 (human epidermoid hepatocellular carcinoma cell), C-33A (human epidermoid cervical carcinoma cell), and HeLa (human epidermoid cervical adenocarcinoma cell) were incubated in Dulbecco’s modified Eagle’s medium (DMEM), which was purchased from Gibco (Grand Island, NY, United States). SiHa cells (human epidermoid cervical squamous cell carcinoma) were incubated in minimum essential medium (MEM, also from Gibco). CaSki (human epidermoid cervical carcinoma cell) and LO2 (human normal liver cell) were incubated in minimum essential medium (MEM, also from Gibco). All cells were maintained at 37°C in a humidified incubator with 5% carbon dioxide, and the media contained 10% fetal bovine serum (FBS, Corning, United States) and 1% penicillin–streptomycin antibiotic solution (Corning, United States). SiHa and CaSki were bought from the China Center for Type Culture Collection (CCTCC). The other five types of cancer cell lines were obtained from the Experiment Center of Medicine, Sinopharm Dongfeng Hospital, Hubei University of Medicine. The compounds were dissolved in dimethyl sulfoxide (DMSO, MP Biomedicals, United States), and cisplatin was purchased from Aladdin, Shanghai, China. The control (0 μM) group was treated with DMSO only in the same conditions, and the DMSO content in the medium was less than 0.1%.
(§2) Cell viability was measured by a 3-(4,5-dimethylthiazol-2-yl)-2,5-diphenyltetrazolium bromide (MTT, MultiSciences, China) assay. The specific experimental steps referred to our previous research ([Zhu et al., 2020]). For each cell line, cells were digested and seeded in 96-well plates at a density of 1 × 10^3 cells/well. […] Then, the formed formazan crystals were dissolved in DMSO, and the plates were estimated in a […] microplate reader (BioTek Inc., Bio-Tek MQX200) at a wavelength of 490 nm. Optical density (OD) values were obtained, and the inhibition rate and IC50 of each compound on different cells were calculated by GraphPad Prism 8.0.1 software. […]

[9] = test system: CaSki cells; experiment: MTT cell viability assay, CaSki; assay type: cell-based; settings: Homo sapiens, Ca-Ski, 48 h, read-out: Half inhibitory concentration (IC50), CaSki
Protocol: as §1, §2

[10] = test system: SiHa cells; experiment: MTT cell viability assay, SiHa; assay type: cell-based; settings: Homo sapiens, 48 h, read-out: Half inhibitory concentration (IC50), SiHa
Protocol: as §1, §2

[11] = test system: HeLa cells; experiment: MTT cell viability assay, HeLa; assay type: cell-based; settings: Homo sapiens, 48 h, read-out: Half inhibitory concentration (IC50), HeLa
Protocol: as §1, §2

[12] = test system: HepG2 cells; experiment: MTT cell viability assay, HepG2; assay type: cell-based; settings: Homo sapiens, 48 h, read-out: Half inhibitory concentration (IC50), HepG2
Protocol: as §1, §2

[13] = test system: 7402 cells; experiment: MTT cell viability assay, 7402; assay type: cell-based; settings: Homo sapiens, 48 h, read-out: Half inhibitory concentration (IC50), 7402
Protocol: as §1, §2

[14] = test system: LO2 cells; experiment: MTT cell viability assay, normal liver LO2; assay type: cell-based, human; settings: Homo sapiens, L02, normal liver LO2 cells, 48 h, read-out: Half inhibitory concentration (IC50), LO2
Protocol: as §1
Cell viability was measured by a 3-(4,5-dimethylthiazol-2-yl)-2,5-diphenyltetrazolium bromide (MTT, MultiSciences, China) assay. The specific experimental steps referred to our previous research ([Zhu et al., 2020]). For each cell line, cells were digested and seeded in 96-well plates at a density of 1 × 10^3 cells/well. After 24 h of culture, the cells were adherent and treated with varying concentrations of RPDPRH (0, 3.125, 6.25, 12.5, 25, 50, and 100 μM). Cells without treatment were used as a solvent control group (0 μM, DMSO) and those with cisplatin treatment served as a positive control. After 48 h of treatment, MTT solution was added and incubated for 4 h. Then, the formed formazan crystals were dissolved in DMSO, and the plates were estimated in a […] microplate reader (BioTek Inc., Bio-Tek MQX200) at a wavelength of 490 nm. Optical density (OD) values were obtained, and the inhibition rate and IC50 of each compound on different cells were calculated by GraphPad Prism 8.0.1 software. Cell inhibition rate (%) = 1− [(OD experimental-OD blank)/(OD control-OD blank)] × 100%.

pIC50 [11]	pIC50 [12]	melting point [°C]	Structure (SMILES)	pIC50 [1]	pIC50 [2]	pIC50 [3]	pIC50 [4]	pIC50 [5]	pIC50 [6]	pIC50 [7]	pIC50 [8]	pIC50 [9]	pIC50 [10]	pIC50 [13]	pIC50 [14]
–	–	–	N.N.[Cl][Pt][Cl] [Cisplatin, cisplatin, reference compound]	4.32	4.76	4.43	4.32	4.72	4.31	4.76	–	–	–	–	–
< 4.00	< 4.00	209 to 210	O=C1/C(=C/c2ccccc2)CC(/C=C/c2ccccc2)(C(=O)NC2CCCCC2)N1c1ccc(Cl)cc1 (stereo not drawn) [RPDPRI, (2E, 4E)-4-benzylidene-1-(4-chlorophenyl)-N-cyclohexyl-5-oxo-2-styrylpyrrolidine-2-carboxamide]	–	–	–	–	–	–	–	< 4.00	< 4.00	< 4.00	< 4.00	< 4.00
4.35	< 4.00	–	O=C1/C(=C/c2ccc(Cl)cc2)CC(/C=C/c2ccccc2)(C(=O)NC2CCCCC2)N1c1ccc(Cl)cc1 (stereo not drawn) [RPDPRK, (2E, 4E)-4-(4-chlorobenzylidene)-1-(4-chlorophenyl)-N-cyclohexyl-5-oxo-2-styryl pyrrolidine-2-carboxamide]	–	–	–	–	–	–	–	4.05	4.33	4.17	< 4.00	< 4.00
–	–	142 to 144	O=C1/C(=C/c2ccccc2)CC(/C=C/c2ccc(Cl)cc2)(C(=O)NC2CCCCC2)N1c1ccc(F)cc1 (stereo not drawn) [RPDPRO, (2E, 4E)-2-(4-chlorostyryl)-4-benzylidene-N-cyclohexyl-1-(4-fluorophenyl)-5-oxopyrrolidine-2-carboxamide]	5.25	5.04	4.90	4.67	4.84	4.51	4.06	–	–	–	–	–
